This assay concerns the target T1, nicotinic receptors containing the α7 subunit (Rattus norvegicus, UniProt Q05941).
T1 construct: displace the [^3H]-MLA bond on the rat hippocampus membranes; from tissue; host or cells: hippocampus of female Sprague-Dawley rats (membrane preparation)
Put plainly: binding to nicotinic receptors containing the α7 subunit, competition versus [3H]-methyllycaconitine on rat hippocampus membranes. The conditions noted are these: apparent affinity constant by Cheng and Prusoff, displacement of 5 nM [3H]-MLA, 2 hours at about 20° C. Here is the method: The compounds of the invention were tested for their ability to bind the nicotinic receptors containing the α7 subunit using a test of binding to preparations of rat brain membranes according to the methods described hereunder:
Frozen specimens of hippocampus from the brain of female Sprague-Dawley rats were stored at −20° C. until used. The hippocampi from 10 rats were combined and homogenized using a pulverizer of the Polytron type in 10 volumes of an ice-cooled buffer with the following composition: KCl (11 mM); KH2PO4 (6 mM); NaCl (137 mM); Na2HPO4 (8 mM); HEPES (20 mM); iodoacetamide (5 mM); EDTA (1.5 mM); PMSF (0.1 mM). The pH was adjusted to 7.4 with NaOH. […]
The binding of the compounds of the invention for receptors containing the α7 subunit was measured by competition versus [^3H]-methyllycaconitine ([^3H]-MLA), a radiolabeled tracer which recognizes the α7 receptors (Davies et al., Neuropharmacology 1999, 38, 679-690) according to conventional methods adapted to the format of 96-well plates. The ability of the compounds of the invention to displace the [^3H]-MLA bond on the rat hippocampus membranes was determined in duplicate after incubation for 2 hours at a temperature close to 20° C. […] The non-specific binding was determined in specific wells containing 10 μM of non-radiolabeled MLA. […]

The values that follow come from patent US7517881B2, “Triazine derivatives, their preparation and therapeutic application thereof” (Aventis Pharma S.A., priority 2005, dated 2009).

Each structure is given as a SMILES string.

T1 sequence (Q05941 23-502): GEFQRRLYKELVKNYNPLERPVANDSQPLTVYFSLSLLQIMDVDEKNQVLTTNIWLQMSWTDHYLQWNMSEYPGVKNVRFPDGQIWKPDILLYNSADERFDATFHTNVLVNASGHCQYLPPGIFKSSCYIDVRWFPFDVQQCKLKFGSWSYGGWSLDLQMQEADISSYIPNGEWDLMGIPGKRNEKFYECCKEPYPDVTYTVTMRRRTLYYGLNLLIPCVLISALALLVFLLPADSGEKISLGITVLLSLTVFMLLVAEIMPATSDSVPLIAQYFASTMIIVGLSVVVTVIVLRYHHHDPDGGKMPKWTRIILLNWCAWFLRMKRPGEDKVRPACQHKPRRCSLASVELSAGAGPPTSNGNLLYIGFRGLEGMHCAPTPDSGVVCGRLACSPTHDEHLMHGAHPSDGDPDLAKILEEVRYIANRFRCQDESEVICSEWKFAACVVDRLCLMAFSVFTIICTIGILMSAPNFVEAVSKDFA

As to `CCN(CC)CCCNc1nnc(-c2cn(-c3ccccc3)c3ccccc23)c(=O)[nH]1` [Compound No. 11, 6-(1-phenyl-indol-3-yl)-3-(3-diethylaminopropylamino)-4H-1,2,4-triazin-5-one], the Ki is 737 nM. As to `CCN(CC)CCCNc1nnc(-c2csc3ccccc23)c(=O)[nH]1` [Compound No. 12, 6-(benzothiophen-3-yl)-3-(3-diethylaminopropylamino)-4H-1,2,4-triazin-5-one], the Ki is 957 nM.
